The values below come from US7833531B2, “Method for treating insulin sensitivity by long-acting GLP-1 receptor mimetibody agonists” (Centocor, Inc., priority 2006, dated 2010).

Read-outs that look alike come from different tables or passages of the source. Where no end group is shown, it is not given here.

For data set [1] the following is noted: cited from earlier work.
For data set [2] the following is noted: cited from earlier work. The source holds these as a separate data set.
The target of data set [3] is T1, GLP-1R (Rattus norvegicus, UniProt P32301).
T1 construct: endogenous in cells; host or cells: Rinm cells
T1 sequence (P32301 22-463): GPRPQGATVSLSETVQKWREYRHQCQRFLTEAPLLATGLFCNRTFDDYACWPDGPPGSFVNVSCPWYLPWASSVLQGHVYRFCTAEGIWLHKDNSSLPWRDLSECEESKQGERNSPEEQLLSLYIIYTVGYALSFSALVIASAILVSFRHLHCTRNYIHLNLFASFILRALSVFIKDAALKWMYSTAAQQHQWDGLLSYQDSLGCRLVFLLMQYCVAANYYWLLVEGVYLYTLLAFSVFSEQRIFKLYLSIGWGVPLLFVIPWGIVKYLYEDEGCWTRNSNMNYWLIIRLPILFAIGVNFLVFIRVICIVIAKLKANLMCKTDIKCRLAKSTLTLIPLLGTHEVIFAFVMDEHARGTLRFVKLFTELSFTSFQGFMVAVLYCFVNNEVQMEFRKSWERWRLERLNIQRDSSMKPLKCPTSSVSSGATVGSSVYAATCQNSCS
As to the kind of experiment: cAMP assay in Rinm cells. The format is cell-based. The note with it: similar experiment. The method, then:
cAMP Assay. GLP-1 binds to its receptor, a G-protein coupled receptor, resulting in a dose-dependent increase in the signaling molecule, 3′,5′-cyclic AMP (cAMP). cAMP can be measured with an in vitro assay in cells expressing the GLP-1R (Applied Biosystems). […] The cells were lysed, and the amount of cAMP was determined using a competitive assay that employs an alkaline-phosphatase labeled cAMP conjugate and a chemiluminescent substrate (Tropix® CDPD®).

The test system of data set [4] is diabetic rats. The note with it: cited from earlier work.
Data set [5] concerns db/db mice. Briefly: Blood glucose lowering in db/db mice. It counts as in vivo. The following applies: six week old db/db mice fasted two hours, intravenous; 0.5-4 hours post-dosing; MMB dose 100-fold lower than GLP-1 peptide dose. The procedure:
GLP-1 MMB Lowers Glucose Level in db/db Mice. […] Blood glucose was monitored 0.5, 1, 2, 3, and 4 hours post-dosing.

With “Byetta™: recently marketed GLP-1 analogue developed by Amylin and Eli Lilly, first identified in the saliva of the gila monster lizard”, the “sustained decrease in body weight” value in data set [1] (during the course of the study) was 5-10 pounds. Also, the HbAlc levels lowered entry in data set [1] (following 82 weeks of treatment) is “approximately 1%”. Besides, the “in vivo half life” value in data set [2] is reported as “less than 30 minutes”.
Turning to “GLP-1 (A2S) MMB in IgG4 scaffold: mimetibody with DPP-IV resistant GLP-1 variant GLP-1 (A2S) in IgG4 scaffold (HSEGTFTSDVSSYLEGQAAKEFIAWLVKGRG; also: in IgG4 mimetibody scaffold)”, the “cAMP levels in Rinm cells relative to wt GLP-1 MMB in IgG4 scaffold” value in data set [3] is reported as “significantly higher level than wt GLP-1 MMB in IgG4 scaffold”.
As for `CC[C@H](C)[C@H](NC(=O)[C@H](Cc1ccccc1)NC(=O)[C@H](CCC(=O)O)NC(=O)[C@H](CCCCN)NC(=O)[C@H](C)NC(=O)[C@H](C)NC(=O)[C@H](CCC(N)=O)NC(=O)CNC(=O)[C@H](CCC(=O)O)NC(=O)[C@H](CC(C)C)NC(=O)[C@H](Cc1ccc(O)cc1)NC(=O)[C@H](CO)NC(=O)[C@H](CO)NC(=O)[C@@H](NC(=O)[C@H](CC(=O)O)NC(=O)[C@H](CO)NC(=O)[C@@H](NC(=O)[C@H](Cc1ccccc1)NC(=O)[C@@H](NC(=O)CNC(=O)[C@H](CCC(=O)O)NC(=O)[C@H](C)NC(=O)[C@@H](N)Cc1c[nH]cn1)[C@@H](C)O)[C@@H](C)O)C(C)C)C(=O)N[C@@H](C)C(=O)N[C@@H](Cc1c[nH]c2ccccc12)C(=O)N[C@@H](CC(C)C)C(=O)N[C@H](C(=O)N[C@@H](CCCCN)C(=O)NCC(=O)N[C@@H](CCCNC(=N)N)C(N)=O)C(C)C` [GLP-1 peptide], the insulin sensitivity entry is recorded as “not acute” in data set [4] (acute administration) and “significant improvement in insulin sensitivity” in data set [4] (chronic administration). Moreover, the blood glucose entry in data set [5] is recorded as “lowered blood glucose at 30 minutes, but by 60 minutes, the blood glucose began to increase again”.
Regarding “GLP-1 (A2G) MMB in IgG4 scaffold: mimetibody with DPP-IV resistant GLP-1 variant GLP-1 (A2G) in IgG4 scaffold (HGEGTFTSDVSSYLEGQAAKEFIAWLVKGRG; also: in IgG4 mimetibody scaffold)”, the “cAMP levels in Rinm cells relative to wt GLP-1 MMB in IgG4 scaffold” value in data set [3] is recorded as “significantly higher level than wt GLP-1 MMB in IgG4 scaffold”.
